Test results published in US9029404B2, “Apoptosis-inducing agents for the treatment of cancer and immune and autoimmune diseases” (AbbVie Inc., priority 2008, dated 2015).

Molecular target: GST-Bcl-2 (Homo sapiens, UniProt P10415)
Assay: Time Resolved-Fluorescence Resonance Energy Transfer (TR-FRET) Bcl-2 binding assay
Details: competition with F-Bak peptide probe (100 nM); GST-Bcl-2 1 nM; Tb-anti-GST 1 nM; 3 hours at room temperature; Wang's equation
How it was run: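 Ki values derived from TR-FRET displacement of F-Bak peptide from GST-Bcl-2, detected with Tb-labelled anti-GST antibody (ex 340, em 520/495 nm). Compound dilution series started at 50 μM (2× starting concentration); room-temperature incubation 3 hours.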

GST-Bcl-2, sequence (P10415 whole entry): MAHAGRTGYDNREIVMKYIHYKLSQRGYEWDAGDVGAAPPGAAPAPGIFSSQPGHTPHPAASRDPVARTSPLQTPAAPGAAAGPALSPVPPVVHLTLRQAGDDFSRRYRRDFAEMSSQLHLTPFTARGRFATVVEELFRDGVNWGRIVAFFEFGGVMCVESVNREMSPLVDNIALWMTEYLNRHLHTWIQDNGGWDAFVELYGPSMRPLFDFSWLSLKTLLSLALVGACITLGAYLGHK

## CC1(C)CCC(CN2CCN(c3ccc(C(=O)NS(=O)(=O)c4ccc(NCC5CCC(C)(O)CC5)c([N+](=O)[O-])c4)c(Oc4cnc(N)c(Cl)c4)c3)CC2)=C(c2ccc(Cl)cc2)C1 (stereo not drawn) [Example 437, 2-[(6-amino-5-chloropyridin-3-yl)oxy]-4-(4-{[2-(4-chlorophenyl)-4,4-dimethylcyclohex-1-en-1-yl]methyl}piperazin-1-yl)-N-[(4-{[(cis-4-hydroxy-4-methylcyclohexyl)methyl]amino}-3-nitrophenyl)sulfonyl]benzamide]
  Ki: < 0.01 nM
